Earlier results, collected in US4033823A, “Process to produce lysocellin” (Hoffmann-La Roche Inc., priority 1976, dated 1977).

Key:
[1] = test system: Alternaria kikuchiana
[2] = test system: Shigella dysenteriae
[3] = test system: gram-positive bacteria
[4] = test system: antibiotic resistant Staphylococcus aureus
[5] = test system: Salmonella typhimurium
[6] = test system: fungi; settings: some fungi
[7] = test system: Sarcina lutea
[8] = test system: Antibiotic resistant S. aureus; settings: S. aureus resistant to streptomycin, erythromycin, chloramphenicol and penicillin
[9] = test system: Fusarium oxysporum
[10] = test system: gram-negative bacteria
[11] = test system: Helminthosporium oryzae
[12] = mice, intraperitoneally
[13] = test system: Staphylococcus aureus FDA 209P
[14] = test system: Bacillus subtilis; settings: Bacillus subtilis grown on liquid medium
[15] = test system: Antibiotic resistant E. coli; settings: E. coli resistant to streptomycin, chloramphenicol, kanamycin, tetracyclin and sulfonamide
[16] = test system: staphylococcus aureus; settings: intraperitoneal administration
[17] = 66% dimethylformamide
[18] = test system: Mycobacterium smegmatis
[19] = test system: Bacillus subtilis
[20] = test system: Botrytis cinerea
[21] = test system: Escherichia coli
[22] = test system: Pseudomonas aeruginosa

Q: For Lysocellin, which “Minimum inhibitory Concentration” value [1] is on record?
A: Its value is 100 µg/mL.

Q: What about the “Minimum inhibitory Concentration” value [2] of the same substance?
A: Its value is over 100 µg/mL.

Q: And the Antimicrobial activity [3]?
A: Its Antimicrobial activity is “active”.

Q: And the Antimicrobial activity [4]?
A: The Antimicrobial activity was “active”.

Q: What about the “Minimum inhibitory Concentration” value [5] of the same substance?
A: Its value is over 100 µg/mL.

Q: What about the Antimicrobial activity [6] of the same substance?
A: Its Antimicrobial activity is “active against some fungi”.

Q: And the “Minimum inhibitory Concentration” value [7]?
A: The value was 10 µg/mL.

Q: What about the “Minimum inhibitory Concentration” value [8] of the same substance?
A: The value was 4 µg/mL.

Q: What about the “Minimum inhibitory Concentration” value [9] of the same substance?
A: Its value is 100 µg/mL.

Q: And the Antimicrobial activity [10]?
A: The Antimicrobial activity was “not active”.

Q: And the “Minimum inhibitory Concentration” value [11]?
A: Its value is 50 µg/mL.

Q: What about the LD50 [12] of the same substance?
A: Its LD50 is “about 70 mg/kg”.

Q: What about the “Minimum inhibitory Concentration” value [13] of the same substance?
A: Its value is 10 µg/mL.

Q: And the bacterial lysis [14]?
A: Its bacterial lysis is “caused bacterial lysis”.

Q: And the “Minimum inhibitory Concentration” value [15]?
A: Its value is over 100 µg/mL.

Q: What about the “activity against staphylococcus aureus infection in mice” value [16] of the same substance?
A: The value was “inactive”.

Q: What about the “pKa'” value [17] of the same substance?
A: The value was 6.6.

Q: What about the “Minimum inhibitory Concentration” value [18] of the same substance?
A: Its value is 20 µg/mL.

Q: And the “Minimum inhibitory Concentration” value [19]?
A: The value was 10 µg/mL.

Q: What about the “Minimum inhibitory Concentration” value [20] of the same substance?
A: Its value is 50 µg/mL.

Q: What about the “Minimum inhibitory Concentration” value [21] of the same substance?
A: The value was over 100 µg/mL.

Q: And the “Minimum inhibitory Concentration” value [22]?
A: The value was over 100 µg/mL.
